Data reported in patent US20070299092A1 (Wyeth, priority 2004, published 2007).
“And” between values parts separate entries of the source, which are not always exact repeats. Identical values can stand only once. Like-named read-outs stand apart in the source and are kept apart here.

Legend:
[1] = molecular target: T1, human KDR (VEGF-receptor-2) (Homo sapiens, UniProt P35968); assay: KDR kinase enzyme assay (DELFIA, KDR-IC-Flag, poly(Glu4-Tyr) peptide); format: biochemical; conditions: for inhibition at 0.1 µM: Concentration 100 nM; for inhibition at 1 µM: Concentration 1000 nM
T1 construct: beginning at Met-806; (5′-ATG GAT CCA GAT GM CTC CCA TTG) and ending at Val-1356; made in house

[2] = molecular target: KDR (Homo sapiens, UniProt P35968); assay: cell-based; conditions: read-out: % Inhibition of KDR kinase autophosphorylation in KDR15 cells, compound conc. 1000 nM
[3] = system: Human umbilical vein endothelial cells (HUVEC); assay: HUVEC proliferation assay, VEGF-dependent growth ([3H]-thymidine incorporation); format: cell-based; conditions: for inhibition at 1 µM / inhibition at 10 µM / inhibition at 0.1 µM: Homo sapiens, HUVEC
Procedure: Cells were plated into 96-well dishes (4000 cells per well) and allowed to attach overnight. HUVEC were rinsed one time with 100 μl of EBMc-V (EBM supplemented with all above components except serum or VEGF), then 50 ul of EBMc-V was added to cells. Compounds were prepared at 200× stocks in DMSO, diluted into EBMc-V media as 4× stocks, then 50 ul added to appropriate wells. Finally, 100 μl of 2×VEGF (100 ng/ml prepared in EBMc-V; final 50 ng/ml VEGF) was added to all VEGF-treated wells. EBMc-V (no VEGF) was added to negative control wells. Parallel compound-treated plates were prepared except that 100 μl of EGM2 media containing 2% serum but lacking VEGF (EGMc-V) was added. Cells were incubated for 4-5 days at 37° C.
DNA synthesis was assessed by thymidine incorporation. Cells were incubated for 5 hours in 1 μCi of [^3H]-thymidine (PerkinElmer) by addition of 10 ul of 0.1 μCi/ul thymidine prepared in PBS to each well. After incubation, media was aspirated and the cells trypsinized and collected onto a mat using a vacuum-based Micro Cell Harvester (Skatron). [^3H]-thymidine was counted in a liquid scintillation counter. Compounds evaluated for ability to inhibit VEGF-dependent growth of human umbilical vein endothelial cells (HUVEC).

[4] = ATP conc. 10 μM, read-out: % Inhibition
[5] = ATP conc. 1000 μM, read-out: % Inhibition

KDR, sequence (P35968 20-1356): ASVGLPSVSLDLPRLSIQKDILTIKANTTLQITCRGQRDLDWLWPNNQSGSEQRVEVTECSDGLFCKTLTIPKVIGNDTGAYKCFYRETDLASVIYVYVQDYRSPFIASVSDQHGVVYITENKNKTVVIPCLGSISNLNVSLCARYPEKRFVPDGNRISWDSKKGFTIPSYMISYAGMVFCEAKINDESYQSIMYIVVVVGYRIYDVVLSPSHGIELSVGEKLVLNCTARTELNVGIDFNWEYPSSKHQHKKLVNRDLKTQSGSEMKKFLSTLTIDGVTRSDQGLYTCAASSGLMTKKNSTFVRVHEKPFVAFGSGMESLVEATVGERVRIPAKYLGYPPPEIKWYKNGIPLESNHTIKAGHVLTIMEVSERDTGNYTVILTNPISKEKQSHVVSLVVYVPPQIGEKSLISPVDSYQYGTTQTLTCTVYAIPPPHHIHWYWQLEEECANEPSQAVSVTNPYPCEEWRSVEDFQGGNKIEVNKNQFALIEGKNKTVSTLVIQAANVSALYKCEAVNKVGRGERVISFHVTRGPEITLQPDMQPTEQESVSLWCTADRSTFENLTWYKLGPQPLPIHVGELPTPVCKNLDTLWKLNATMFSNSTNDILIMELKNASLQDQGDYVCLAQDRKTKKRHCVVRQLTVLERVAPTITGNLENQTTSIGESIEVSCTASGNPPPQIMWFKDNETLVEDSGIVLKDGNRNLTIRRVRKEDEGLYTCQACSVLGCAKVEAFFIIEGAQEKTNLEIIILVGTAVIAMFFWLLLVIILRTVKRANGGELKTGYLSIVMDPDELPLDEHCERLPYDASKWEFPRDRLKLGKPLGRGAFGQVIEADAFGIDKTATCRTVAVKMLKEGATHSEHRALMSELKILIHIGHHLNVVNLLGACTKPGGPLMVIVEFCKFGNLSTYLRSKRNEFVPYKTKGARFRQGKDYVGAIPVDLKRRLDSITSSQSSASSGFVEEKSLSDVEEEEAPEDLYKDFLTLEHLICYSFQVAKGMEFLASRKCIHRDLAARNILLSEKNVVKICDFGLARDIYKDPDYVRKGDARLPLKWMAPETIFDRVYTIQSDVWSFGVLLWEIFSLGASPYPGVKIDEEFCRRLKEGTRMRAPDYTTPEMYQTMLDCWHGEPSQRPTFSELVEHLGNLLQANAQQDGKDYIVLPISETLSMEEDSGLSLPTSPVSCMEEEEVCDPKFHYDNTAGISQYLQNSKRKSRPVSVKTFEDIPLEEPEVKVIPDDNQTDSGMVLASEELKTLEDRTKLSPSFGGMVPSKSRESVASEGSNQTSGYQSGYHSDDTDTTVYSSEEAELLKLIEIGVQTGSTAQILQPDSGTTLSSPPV
T1 sequence (P35968 806-1356): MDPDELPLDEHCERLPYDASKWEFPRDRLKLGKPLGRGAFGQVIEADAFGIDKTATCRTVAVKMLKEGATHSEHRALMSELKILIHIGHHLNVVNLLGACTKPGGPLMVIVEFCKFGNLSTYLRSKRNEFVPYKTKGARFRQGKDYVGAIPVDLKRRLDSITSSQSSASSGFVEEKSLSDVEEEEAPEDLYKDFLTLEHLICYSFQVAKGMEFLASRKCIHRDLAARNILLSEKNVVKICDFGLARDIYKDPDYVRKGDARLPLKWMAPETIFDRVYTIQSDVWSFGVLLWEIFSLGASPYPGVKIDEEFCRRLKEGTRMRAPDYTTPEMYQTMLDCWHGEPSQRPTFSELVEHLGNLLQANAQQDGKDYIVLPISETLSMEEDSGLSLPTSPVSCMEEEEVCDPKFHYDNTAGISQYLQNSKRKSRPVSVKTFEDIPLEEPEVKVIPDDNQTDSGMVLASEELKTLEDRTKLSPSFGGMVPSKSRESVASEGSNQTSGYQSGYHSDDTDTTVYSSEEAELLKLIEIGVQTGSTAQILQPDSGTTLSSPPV

SMILES | IC50 ([1]; ATP conc. 10 μM) | inhibition at 1 µM [2] | inhibition at 0.1 µM [1, 4] | inhibition at 1 µM [1, 4] | inhibition at 0.1 µM ([1]; ATP conc. 10 μM) | inhibition at 1 µM ([1]; ATP conc. 10 μM) | inhibition at 1 µM ([1]; ATP conc. 1000 μM) | inhibition at 10 µM ([3]; conc. 10000 nM) | further results
COCCOc1cc2ncnc(NC3=CC(=O)C(Oc4cccc(OC)c4)=CC3=O)c2cc1OC [Example 28, 2-{[6-methoxy-7-(2-methoxyethoxy)quinazolin-4-yl]amino}-5-(3-methoxyphenoxy)benzo-1,4-quinone] | 12.1 nM | 35% | – | – | 83% | 96% | 98% | – | –
COCCOc1cc2ncnc(NC3=CC(=O)C(Oc4cccc(Cl)c4)=CC3=O)c2cc1OC [Example 33, 2-(3-chlorophenoxy)-5-{[6-methoxy-7-(2-methoxyethoxy)quinazolin-4-yl]amino}benzo-1,4-quinone] | – | 19% | – | – | 84% | 96% | 98% | – | –
COc1cc2ncnc(NC3=CC(=O)C4(C)OC4C3=O)c2cc1OC (stereo not shown) [Example 5, 4-[(6,7-dimethoxy-4-quinazolinyl)amino]-1-methyl-7-oxabicyclo[4.1.0]hept-3-ene-2,5-dione] | – | 56% | 18% | 49% | – | – | – | – | inhibition at 1 µM [1, 5]: 60%
COCCOc1cc2ncnc(NC3=CC(=O)C(Oc4ccc(Oc5ccccc5)cc4)=CC3=O)c2cc1OC [Example 29, 2-{[6-methoxy-7-(2-methoxyethoxy)quinazolin-4-yl]amino}-5-(4-phenoxyphenoxy)benzo-1,4-quinone] | 37.7 nM | 30% | – | – | 62% | 92% | 95% | – | –
COCCOc1cc2ncnc(NC3=C(Sc4ccccc4)C(=O)C=C(OC)C3=O)c2cc1OC [Example 18, 5-methoxy-3-{[6-methoxy-7-(2-methoxyethoxy)quinazolin-4-yl]amino}-2-(phenylthio)benzo-1,4-quinone] | – | 27% | 13% | 2% | – | – | – | – | inhibition at 1 µM [1, 5]: -30%
COCCOc1cc2ncnc(NC3=CC(=O)C(Oc4ccc(SC)cc4)=CC3=O)c2cc1OC [Example 35, 2-{[6-methoxy-7-(2-methoxyethoxy)quinazolin-4-yl]amino}-5-[4-(methylthio)phenoxy]benzo-1,4-quinone] | – | 39% | – | – | 87% | 96% | 98% | – | –
COCCOc1cc2ncnc(NC3=CC(=O)C(N(C)Cc4ccccc4)=CC3=O)c2cc1OC [Example 82, 2-[benzyl(methyl)amino]-5-{[6-methoxy-7-(2-methoxyethoxy)quinazolin-4-yl]amino}benzo-1,4-quinone] | – | 12% | 15% | 30% | – | – | – | – | inhibition at 1 µM [1, 5]: 45%
COCCOc1cc2ncnc(NC3=CC(=O)C(Cl)=CC3=O)c2cc1OC [Example 25, 2-chloro-5-{[6-methoxy-7-(2-methoxyethoxy)quinazolin-4-yl]amino}benzo-1,4-quinone] | – | – | – | – | – | – | – | 81% | inhibition at 0.1 µM ([3]; conc. 100 nM): 29%; inhibition at 1 µM ([3]; conc. 1000 nM): 51%
COCCOc1cc2ncnc(NC3=CC(=O)C(OC)=CC3=O)c2cc1OC [Example 105, 2-(methoxy)-5-{[6-methoxy-7-(2-methoxyethoxy)quinazolin-4-yl]amino}benzo-1,4-quinone] | – | – | – | – | – | – | – | 88% | inhibition at 0.1 µM ([3]; conc. 100 nM): -1%; inhibition at 1 µM ([3]; conc. 1000 nM): 36%
COCCOc1cc2ncnc(NC3=CC(=O)C(Oc4ccc(C#N)cc4)=CC3=O)c2cc1OC [Example 31, 4-[(4-{[6-methoxy-7-(2-methoxyethoxy)quinazolin-4-yl]amino}-3,6-dioxocyclohexa-1,4-dien-1-yl)oxy]benzonitrile] | – | – | – | – | 82% | 96% | 98% | – | –
COCCOc1cc2ncnc(NC3=CC(=O)C(C)=CC3=O)c2cc1OC [Example 15, 2-{[6-methoxy-7-(2-methoxyethoxy)-4-quinazolinyl]amino}-5-methylbenzo-1,4-quinone] | – | – | – | – | – | – | – | 96% | inhibition at 0.1 µM ([3]; conc. 100 nM): 24%; % Inhibition of VEGF-dependent growth of HUVEC ([3]; conc. 100 nM): 40% and 42%; % Inhibition of VEGF-dependent growth of HUVEC ([3]; conc. 1000 nM): 86% and 95% and 67%; % Inhibition of VEGF-dependent growth of HUVEC ([3]; conc. 10000 nM): 98% and 97%
COCCOc1cc2ncc(C#N)c(NC3=CC(=O)C(Oc4ccccc4)=CC3=O)c2cc1OC [Example 71, 4-[(3,6-dioxo-4-phenoxycyclohexa-1,4-dien-1-yl)amino]-6-methoxy-7-(2-methoxyethoxy)quinoline-3-carbonitrile] | 273 nM | – | 41% | 85% | – | – | – | – | inhibition at 1 µM [1, 5]: 58%
COCCOc1cc2ncnc(NC3=CC(=O)C(Oc4ccc(F)cc4)=CC3=O)c2cc1OC [Example 30, 2-(4-fluorophenoxy)-5-{[6-methoxy-7-(2-methoxyethoxy)quinazolin-4-yl]amino}benzo-1,4-quinone] | – | – | – | – | 83% | 96% | 98% | – | –
COCCOc1cc2ncnc(NC3=CC(=O)C(N(C)c4ccccc4)=CC3=O)c2cc1OC [Example 76, 2-{[6-methoxy-7-(2-methoxyethoxy)quinazolin-4-yl]amino}-5-[methyl(phenyl)amino]benzo-1,4-quinone] | – | – | – | – | – | – | – | 96% | inhibition at 0.1 µM ([3]; conc. 100 nM): -30%; inhibition at 1 µM ([3]; conc. 1000 nM): 63%

Second part, led by results:

IC50 ([1]; ATP conc. 10 μM) | inhibition at 1 µM [2] | inhibition at 0.1 µM [1, 4] | inhibition at 1 µM [1, 4] | SMILES | inhibition at 0.1 µM ([1]; ATP conc. 10 μM) | inhibition at 1 µM ([1]; ATP conc. 10 μM) | inhibition at 1 µM ([1]; ATP conc. 1000 μM) | inhibition at 10 µM ([3]; conc. 10000 nM) | further results
– | 110% | 92% | 94% | COCCOc1cc2ncnc(NC3=CC(=O)C(Oc4ccc(CCC(=O)OC)cc4)=CC3=O)c2cc1OC [Example 40, methyl 3-{4-[(4-{[6-methoxy-7-(2-methoxyethoxy)quinazolin-4-yl]amino}-3,6-dioxocyclohexa-1,4-dien-1-yl)oxy]phenyl}propanoate] | – | – | – | – | –
2.6 nM | 99% | 92% | 93% | CCOC(=O)c1c(C)[nH]c2ccc(OC3=CC(=O)C(Nc4ncnc5cc(OCCOC)c(OC)cc45)=CC3=O)cc12 [Example 45, ethyl 5-[(4-{[6-methoxy-7-(2-methoxyethoxy)quinazolin-4-yl]amino}-3,6-dioxocyclohexa-1,4-dien-1-yl)oxy]-2-methyl-1H-indole-3-carboxylate] | – | – | – | – | –
– | – | 79% | 96% | COCCOc1cc2ncnc(NC3=CC(=O)C(Oc4ccc(C(F)(F)F)cc4)=CC3=O)c2cc1OC [Example 36, 2-{[6-methoxy-7-(2-methoxyethoxy)quinazolin-4-yl]amino}-5-[4-(trifluoromethyl)phenoxy]benzo-1,4-quinone] | – | – | – | – | inhibition at 1 µM [1, 5]: 98%
– | -5% | -2% | 10% | COCCOc1cc2ncnc(NC3=CC(=O)C(Oc4ccc(CCN)cc4)=CC3=O)c2cc1OC [Example 54, 2-[4-(2-aminoethyl)phenoxy]-5-{[6-methoxy-7-(2-methoxyethoxy)quinazolin-4-yl]amino}benzo-1,4-quinone] | – | – | – | – | –
121 nM | – | 45% | 89% | COCCOc1cc2ncnc(NC3=CC(=O)C(Oc4cccc(C(F)(F)F)c4)=CC3=O)c2cc1OC [Example 43, 2-{[6-methoxy-7-(2-methoxyethoxy)quinazolin-4-yl]amino}-5-[3-(trifluoromethyl)phenoxy]benzo-1,4-quinone] | – | – | – | 88% | inhibition at 1 µM ([3]; conc. 1000 nM): 36%
62.2 nM | – | 69% | 81% | COCCOc1cc2ncnc(NC3=CC(=O)C(Oc4ccc(C(C)(C)c5ccccc5)cc4)=CC3=O)c2cc1OC [Example 56, 2-{[6-methoxy-7-(2-methoxyethoxy)quinazolin-4-yl]amino}-5-[4-(1-methyl-1-phenylethyl)phenoxy]benzo-1,4-quinone] | – | – | – | – | –
5.4 nM | – | 90% | 93% | COCCOc1cc2ncnc(NC3=CC(=O)C(Oc4ccc(C(=O)/C=C/c5ccccc5)cc4)=CC3=O)c2cc1OC [Example 55, 2-{[6-methoxy-7-(2-methoxyethoxy)quinazolin-4-yl]amino}-5-{4-[(2E)-3-phenylprop-2-enoyl]phenoxy}benzo-1,4-quinone] | – | – | – | 99% | inhibition at 0.1 µM ([3]; conc. 100 nM): 7%; inhibition at 1 µM ([3]; conc. 1000 nM): 61%
4.8 nM | – | – | – | COCCOc1cc2ncnc(NC3=CC(=O)C(Oc4ccc(OC)cc4)=CC3=O)c2cc1OC [Example 32, 2-{[6-methoxy-7-(2-methoxyethoxy)quinazolin-4-yl]amino}-5-(4-methoxyphenoxy)benzo-1,4-quinone] | 88% | 96% | 98% | 98% | inhibition at 0.1 µM ([3]; conc. 100 nM): 10%; inhibition at 1 µM ([3]; conc. 1000 nM): 41%
